In paper PMC2895771 (Journal of the American Chemical Society, 2010):

How the values were obtained:
[1] = test system: double tudor domain of JMJD2A; format: biochemical; conditions: probe 1 (1 μM), protein 100 ng; in words
[2] = test system: PHD finger of BPTF; assay: labeling of recombinant BPTF PHD finger by probe 1 and competition by peptides; format: biochemical; conditions: probe 1 (1 μM), protein 100 ng; in words
[3] = test system: GST-ING2PHD; format: biochemical; conditions: probe 1 (1 μM); GST-ING2PHD 10 μg/mL, 280 nM; Hela cell lysates 2 mg/mL; in words
[4] = test system: endogenous ING2; assay: capture of endogenous ING2 from Hela cell lysates; conditions: probe 1 (2 μM), UV, biotin-N3, streptavidin, Western blot, in words
[5] = biological target: T1, GST-fused PHD finger of ING2 (GST-ING2PHD) (Homo sapiens, UniProt Q9H160); assay: UV photocrosslinking labeling of recombinant GST-ING2PHD by probe 1; format: biochemical; conditions: UV irradiation 1 h, coupled to rhodamine azide; in words
T1 sequence (Q9H160 212-261 limits assumed): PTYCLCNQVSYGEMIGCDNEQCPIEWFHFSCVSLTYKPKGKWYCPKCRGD

probe 1: H3K4me3 peptide probe; benzophenone moiety replaced the side chain of Ala 7; spacer (H3 residues 8–15) and an alkyne (ARTKQT; not fully specified; trimethyl-lysine at 4 (K(me3)); benzophenone moiety in place of the side chain of Ala 7; an alkyne group)
labeling of recombinant protein [1]: robust labeling | labeling of recombinant protein [2]: robust labeling | labeling of GST-ING2PHD in cell lysates [3]: robustly labeled | capture of endogenous ING2 [4]: endogenous ING2 was captured by the probe | labeling of the recombinant protein [5]: successfully labeled the recombinant protein in a dose-dependent manner
